Tests used:
Aphis craccivoral = assay: Insecticidal activity against Aphis craccivoral by immersing (dipping aphids on bean sprout); format: in vivo; conditions: for mortality (%) (500 ppm) Aphis: 23° C.
Procedure, shortened: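 Wingless adult A. craccivora feeding on bean sprouts dipped 5 seconds in compound at 500 ug/mL (0.2 mL/L Triton X-100 aqueous), then held at 23 °C. Mortality counted after 24 hours, three replicates, vehicle-only control.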

Nilaparvata lugens = assay: Insecticidal activity against Nilaparvata lugens (planthopper) by spraying; format: in vivo; conditions: for mortality (%) (500 ppm) Nilaparvata-lugens: spraying 2 ml per tumbler, killed counted after 24 hours; for mortality (%) (500 ppm) Nilaparvata lugens: spraying 2 ml, counted after 24 hours
Procedure, shortened: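 Ten planthoppers per tumbler were introduced 6 hours before spraying with 2 ml of test solution, with clean water as blank control. Each treatment had 3 replicates, and three series were run. Mortality was counted after 24 hours.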

[1] = 500 ppm (500 ug/mL dilution), dipped 5 seconds, killed aphis counted after 24 hours
[2] = 500 ppm, immersing (dipped 5 seconds), counted after 24 hours

## CCCN=C1CCC([N+](=O)[O-])=C2N(Cc3ccc(Cl)nc3)CCCN12 [Compound 205]
Aphis craccivoral; [1]
  mortality (%) (500 ppm) Aphis: 35%
Nilaparvata lugens
  mortality (%) (500 ppm) Nilaparvata-lugens: 100%

## O=[N+]([O-])C1=C2N(Cc3cnc(Cl)s3)CCN2C(OCCCl)CC1 (racemic) [Compound 26]
Aphis craccivoral; [2]
  mortality (%) (500 ppm) Aphis: 26%
Nilaparvata lugens
  mortality (%) (500 ppm) Nilaparvata lugens: 64%

## CC(C)(C)OC1CCC([N+](=O)[O-])=C2N(CC3CCOC3)CCN21 (stereo not shown) [Compound 56]
Aphis craccivoral; [2]
  mortality (%) (500 ppm) Aphis: 100%
Nilaparvata lugens
  mortality (%) (500 ppm) Nilaparvata lugens: 100%

## O=C(OC1CCC([N+](=O)[O-])=C2N(Cc3cnc(Cl)s3)CCN21)c1ccc(Cl)c(Cl)c1 (stereo not shown) [Compound 170]
Aphis craccivoral; [1]
  mortality (%) (500 ppm) Aphis: 2%
Nilaparvata lugens
  mortality (%) (500 ppm) Nilaparvata-lugens: 0%

## CCCCOC1CCC([N+](=O)[O-])=C2N(Cc3cnc(Cl)s3)CCN21 (racemic) [Compound 31]
Aphis craccivoral; [2]
  mortality (%) (500 ppm) Aphis: 56%
Nilaparvata lugens
  mortality (%) (500 ppm) Nilaparvata lugens: 35%

## CCC(=O)OC1CCC([N+](=O)[O-])=C2N(Cc3cnc(Cl)s3)CCN21 (stereo not shown) [Compound 153]
Aphis craccivoral; [2]
  mortality (%) (500 ppm) Aphis: 29%
Nilaparvata lugens
  mortality (%) (500 ppm) Nilaparvata lugens: 38%

## O=[N+]([O-])C1=C2N(Cc3cnc(Cl)s3)CCN2C(OCC(F)(F)F)CC1 (racemic) [Compound 27]
Aphis craccivoral; [2]
  mortality (%) (500 ppm) Aphis: 100%
Nilaparvata lugens
  mortality (%) (500 ppm) Nilaparvata lugens: 100%

## CC1CC(O)N2CCN(Cc3ccc(Cl)nc3)C2=C1[N+](=O)[O-] (stereo not shown) [Compound 69]
Aphis craccivoral; [2]
  mortality (%) (500 ppm) Aphis: 45%
Nilaparvata lugens
  mortality (%) (500 ppm) Nilaparvata lugens: 56%

## CCSC1CCC([N+](=O)[O-])=C2N(Cc3ccc(Cl)nc3)CCN21 (stereo not shown) [Compound 133]
Aphis craccivoral; [2]
  mortality (%) (500 ppm) Aphis: 100%
Nilaparvata lugens
  mortality (%) (500 ppm) Nilaparvata lugens: 100%

## CC(C)(OC1CCC([N+](=O)[O-])=C2N(CC3CCOC3)CCN21)C(Cl)(Cl)Cl (stereo not shown) [Compound 57]
Aphis craccivoral; [2]
  mortality (%) (500 ppm) Aphis: 34%
Nilaparvata lugens
  mortality (%) (500 ppm) Nilaparvata lugens: 38%

## O=[N+]([O-])C1=C2N(Cc3ccc(Cl)nc3)CCN2C(SCC(F)(F)F)CC1 (stereo not shown) [Compound 135]
Aphis craccivoral; [2]
  mortality (%) (500 ppm) Aphis: 98%
Nilaparvata lugens
  mortality (%) (500 ppm) Nilaparvata lugens: 100%

## CC(C)(C)OC1CCC([N+](=O)[O-])=C2N(Cc3ccc(Cl)nc3)CCCN21 (stereo not shown) [Compound 82]
Aphis craccivoral; [2]
  mortality (%) (500 ppm) Aphis: 12%
Nilaparvata lugens
  mortality (%) (500 ppm) Nilaparvata lugens: 34%

## CCC(C)SC1CCC([N+](=O)[O-])=C2N(Cc3ccc(Cl)nc3)CCN21 (stereo not shown) [Compound 144]
Aphis craccivoral; [2]
  mortality (%) (500 ppm) Aphis: 12%
Nilaparvata lugens
  mortality (%) (500 ppm) Nilaparvata lugens: 56%

## CC(C)OC1CCC([N+](=O)[O-])=C2N(CC3CCOC3)CCCN21 (stereo not shown) [Compound 105]
Aphis craccivoral; [2]
  mortality (%) (500 ppm) Aphis: 10%
Nilaparvata lugens
  mortality (%) (500 ppm) Nilaparvata lugens: 98%

## CCCC(C)N=C1CCC([N+](=O)[O-])=C2N(Cc3ccc(Cl)nc3)CCN12 (stereo not shown) [Compound 197]
Aphis craccivoral; [1]
  mortality (%) (500 ppm) Aphis: 8%
Nilaparvata lugens
  mortality (%) (500 ppm) Nilaparvata-lugens: 56%

## C=CCOC1CCC([N+](=O)[O-])=C2N(Cc3cnc(Cl)s3)CCN21 (racemic) [Compound 41]
Aphis craccivoral; [2]
  mortality (%) (500 ppm) Aphis: 89%
Nilaparvata lugens
  mortality (%) (500 ppm) Nilaparvata lugens: 100%

## CC(=O)OC1CCC([N+](=O)[O-])=C2N(Cc3ccc(Cl)nc3)CCN21 (stereo not shown) [Compound 113]
Aphis craccivoral; [2]
  mortality (%) (500 ppm) Aphis: 45%
Nilaparvata lugens
  mortality (%) (500 ppm) Nilaparvata lugens: 77%

## COCCOC1CCC([N+](=O)[O-])=C2N(Cc3cnc(Cl)s3)CCN21 (stereo not shown) [Compound 43]
Aphis craccivoral; [2]
  mortality (%) (500 ppm) Aphis: 100%
Nilaparvata lugens
  mortality (%) (500 ppm) Nilaparvata lugens: 100%

## COCCN=C1CCC([N+](=O)[O-])=C2N(Cc3ccc(Cl)nc3)CCN12 [Compound 199]
Aphis craccivoral; [1]
  mortality (%) (500 ppm) Aphis: 16%
Nilaparvata lugens
  mortality (%) (500 ppm) Nilaparvata-lugens: 36%

## O=[N+]([O-])C1=C2N(Cc3cnc(Cl)s3)CCN2C(=NCCCl)CC1 [Compound 215]
Aphis craccivoral; [1]
  mortality (%) (500 ppm) Aphis: 9%
Nilaparvata lugens
  mortality (%) (500 ppm) Nilaparvata-lugens: 97%

## O=[N+]([O-])C1=C2N(Cc3ccc(Cl)nc3)CCN2C(O)CC1 (stereo not shown) [Compound 1]
Aphis craccivoral; Aphis, 24 h, read-out: mortality (%) (500 ppm) Aphis
  mortality at 500 ppm: 96%
Nilaparvata lugens; Nilaparvata lugens, 24 h, read-out: mortality (%) (500 ppm) Nilaparvata lugens
  mortality at 500 ppm: 100%

## COC1CCC([N+](=O)[O-])=C2N(CC3CCOC3)CCN21 (stereo not shown) [Compound 46]
Aphis craccivoral; [2]
  mortality (%) (500 ppm) Aphis: 100%
Nilaparvata lugens
  mortality (%) (500 ppm) Nilaparvata lugens: 100%

## O=C(OC1CCC([N+](=O)[O-])=C2N(Cc3ccc(Cl)nc3)CCN21)c1cc(F)c(F)c([N+](=O)[O-])c1F (stereo not shown) [Compound 130]
Aphis craccivoral; [2]
  mortality (%) (500 ppm) Aphis: 23%
Nilaparvata lugens
  mortality (%) (500 ppm) Nilaparvata lugens: 67%

## CCCCCN=C1CCC([N+](=O)[O-])=C2N(Cc3ccc(Cl)nc3)CCN12 [Compound 195]
Aphis craccivoral; [1]
  mortality (%) (500 ppm) Aphis: 46%
Nilaparvata lugens
  mortality (%) (500 ppm) Nilaparvata-lugens: 78%

## O=[N+]([O-])C1=C2N(CC3CCOC3)CCN2C(OCCCl)CC1 (stereo not shown) [Compound 48]
Aphis craccivoral; [2]
  mortality (%) (500 ppm) Aphis: 3%
Nilaparvata lugens
  mortality (%) (500 ppm) Nilaparvata lugens: 0%

## O=[N+]([O-])C1=C2N(CC3CCOC3)CCCN2C(OCCCl)CC1 (stereo not shown) [Compound 102]
Aphis craccivoral; [2]
  mortality (%) (500 ppm) Aphis: 0%
Nilaparvata lugens
  mortality (%) (500 ppm) Nilaparvata lugens: 89%

## CCCC(C)SC1CCC([N+](=O)[O-])=C2N(Cc3ccc(Cl)nc3)CCN21 (stereo not shown) [Compound 146]
Aphis craccivoral; [2]
  mortality (%) (500 ppm) Aphis: 35%
Nilaparvata lugens
  mortality (%) (500 ppm) Nilaparvata lugens: 97%

## O=C(OC1CCC([N+](=O)[O-])=C2N(Cc3ccc(Cl)nc3)CCN21)c1ccc(C(F)(F)F)cc1 (stereo not shown) [Compound 126]
Aphis craccivoral; [2]
  mortality (%) (500 ppm) Aphis: 93%
Nilaparvata lugens
  mortality (%) (500 ppm) Nilaparvata lugens: 100%

## CC(=O)OC1CCC([N+](=O)[O-])=C2N(Cc3cnc(Cl)s3)CCN21 (stereo not shown) [Compound 152]
Aphis craccivoral; [2]
  mortality (%) (500 ppm) Aphis: 3%
Nilaparvata lugens
  mortality (%) (500 ppm) Nilaparvata lugens: 0%

## CCCCCOC1CCC([N+](=O)[O-])=C2N(Cc3cnc(Cl)s3)CCN21 (racemic) [Compound 36]
Aphis craccivoral; [2]
  mortality (%) (500 ppm) Aphis: 34%
Nilaparvata lugens
  mortality (%) (500 ppm) Nilaparvata lugens: 57%

## O=[N+]([O-])C1=C2N(CC3CCOC3)CCN2C(OC2CCCCC2)CC1 (stereo not shown) [Compound 63]
Aphis craccivoral; [2]
  mortality (%) (500 ppm) Aphis: 2%
Nilaparvata lugens
  mortality (%) (500 ppm) Nilaparvata lugens: 6%

## CCCCN=C1CCC([N+](=O)[O-])=C2N(Cc3cnc(Cl)s3)CCN12 [Compound 216]
Aphis craccivoral; [1]
  mortality (%) (500 ppm) Aphis: 66%
Nilaparvata lugens
  mortality (%) (500 ppm) Nilaparvata-lugens: 98%

## CCC(C)OC1CCC([N+](=O)[O-])=C2N(Cc3ccc(Cl)nc3)CCCN21 (stereo not shown) [Compound 81]
Aphis craccivoral; [2]
  mortality (%) (500 ppm) Aphis: 12%
Nilaparvata lugens
  mortality (%) (500 ppm) Nilaparvata lugens: 8%

## O=[N+]([O-])C1=C2N(Cc3cnc(Cl)s3)CCCN2C(OC(C(F)(F)F)C(F)(F)F)CC1 (stereo not shown) [Compound 92]
Aphis craccivoral; [2]
  mortality (%) (500 ppm) Aphis: 6%
Nilaparvata lugens
  mortality (%) (500 ppm) Nilaparvata lugens: 5%

## CCCOC1CCC([N+](=O)[O-])=C2N(Cc3cnc(Cl)s3)CCCN21 (stereo not shown) [Compound 90]
Aphis craccivoral; [2]
  mortality (%) (500 ppm) Aphis: 34%
Nilaparvata lugens
  mortality (%) (500 ppm) Nilaparvata lugens: 51%

## CC(C)OC1CCC([N+](=O)[O-])=C2N(CC3CCOC3)CCN21 (stereo not shown) [Compound 51]
Aphis craccivoral; [2]
  mortality (%) (500 ppm) Aphis: 34%
Nilaparvata lugens
  mortality (%) (500 ppm) Nilaparvata lugens: 23%

## O=C(OC1CCC([N+](=O)[O-])=C2N(Cc3ccc(Cl)nc3)CCN21)c1ccccc1 (stereo not shown) [Compound 122]
Aphis craccivoral; [2]
  mortality (%) (500 ppm) Aphis: 56%
Nilaparvata lugens
  mortality (%) (500 ppm) Nilaparvata lugens: 23%

## CCN=C1CCC([N+](=O)[O-])=C2N(Cc3cnc(Cl)s3)CCCN12 [Compound 222]
Aphis craccivoral; [1]
  mortality (%) (500 ppm) Aphis: 4%
Nilaparvata lugens
  mortality (%) (500 ppm) Nilaparvata-lugens: 89%

## CN=C1CCC([N+](=O)[O-])=C2N(Cc3ccc(Cl)nc3)CCCN12 [Compound 202]
Aphis craccivoral; [1]
  mortality (%) (500 ppm) Aphis: 89%
Nilaparvata lugens
  mortality (%) (500 ppm) Nilaparvata-lugens: 98%

## CC(C)(C)CSC1CCC([N+](=O)[O-])=C2N(Cc3cnc(Cl)s3)CCN21 (stereo not shown) [Compound 185]
Aphis craccivoral; [1]
  mortality (%) (500 ppm) Aphis: 36%
Nilaparvata lugens
  mortality (%) (500 ppm) Nilaparvata-lugens: 86%

## CN=C1CCC([N+](=O)[O-])=C2N(Cc3cnc(Cl)s3)CCCN12 [Compound 221]
Aphis craccivoral; [1]
  mortality (%) (500 ppm) Aphis: 4%
Nilaparvata lugens
  mortality (%) (500 ppm) Nilaparvata-lugens: 67%

## CCC(C)OC1CCC([N+](=O)[O-])=C2N(CC3CCOC3)CCN21 (stereo not shown) [Compound 59]
Aphis craccivoral; [2]
  mortality (%) (500 ppm) Aphis: 2%
Nilaparvata lugens
  mortality (%) (500 ppm) Nilaparvata lugens: 3%

## CN=C1CCC([N+](=O)[O-])=C2N(Cc3cnc(Cl)s3)CCN12 [Compound 213]
Aphis craccivoral; [1]
  mortality (%) (500 ppm) Aphis: 32%
Nilaparvata lugens
  mortality (%) (500 ppm) Nilaparvata-lugens: 78%

## CCCOC1CCC([N+](=O)[O-])=C2N(CC3CCOC3)CCN21 (stereo not shown) [Compound 50]
Aphis craccivoral; [2]
  mortality (%) (500 ppm) Aphis: 100%
Nilaparvata lugens
  mortality (%) (500 ppm) Nilaparvata lugens: 100%

## O=C(OC1CCC([N+](=O)[O-])=C2N(Cc3cnc(Cl)s3)CCN21)c1cc(F)c(Cl)cc1Cl (stereo not shown) [Compound 164]
Aphis craccivoral; [2]
  mortality (%) (500 ppm) Aphis: 59%
Nilaparvata lugens
  mortality (%) (500 ppm) Nilaparvata lugens: 78%

## CC(C)(C)OC1CCC([N+](=O)[O-])=C2N(CC3CCOC3)CCCN21 (stereo not shown) [Compound 110]
Aphis craccivoral; [2]
  mortality (%) (500 ppm) Aphis: 67%
Nilaparvata lugens
  mortality (%) (500 ppm) Nilaparvata lugens: 98%

## CCCSC1CCC([N+](=O)[O-])=C2N(Cc3cnc(Cl)s3)CCN21 (stereo not shown) [Compound 175]
Aphis craccivoral; [1]
  mortality (%) (500 ppm) Aphis: 89%
Nilaparvata lugens
  mortality (%) (500 ppm) Nilaparvata-lugens: 100%

Source: US7655665B2, “Nitromethylene derivatives and their use” (East China University of Science and Technology, priority 2004, dated 2010)
